Measurements from patent US20030162760A1 (priority 1999, published 2003).
Values after ≈ are worked out from the molar mass of the structure shown. Where two headings read alike, the source gives them in different places.

Columns and labels:
[1] = tested on: lipase derived from Propionibacterium; assay: Lipase inhibitory activity (2), partially purified lipase, paranitrophenyl palmitate substrate; type: biochemical, Propionibacterium acnes JCM6425; details: for Inhibitory Ratio: P. acnes lipase, pH 6.5, 30° C., 120 minutes
Experimental: The activity of inhibiting lipase derived from Propionibacterium of the ascorbic acid-2-phosphate zinc salt, the ascorbic acid-2-phosphate and zinc salt mixture and the ascorbic acid-2-glucoside and zinc salt mixture of the present invention was examined.
The culture solution of Propionibacterium acnes JCM6425 cultured in the same manner as in Example 7 was dialyzed with 50 mM phosphate buffer, then concentrated to about 1/10 the amount using an ultrafiltration film having a fraction molecular weight of 10,000 and used as the lipase partially purified product.
(§1) To 1.9 ml of 50 mM HEPES buffer (pH: 6.5) separately placed in a small test tube, 0.1 ml of the lipase partially purified product was added and thereto, APZ, AP+Zn and AG+Zn prepared in Examples 1 to 3, APM and AG were added each to have concentrations of 0.1 mg/ml, 1 mg/ml and 10 mg/ml. The reaction was started by addition of a substrate paranitrophenyl palmitate at a final concentration of 0.14 mg/ml. The reaction was performed at 30° C. for 120 minutes under shaking. After completion of the reaction, the absorbance at a wavelength of 405 nm was measured and the difference from the absorbance of a control test tube where the substrate was not present was used as the activity. The ratio between activity when a sample was present and activity when the sample was not present was calculated as the inhibitory ratio of each sample and the values obtained were compared.

[2] = tested on: hyaluronidase derived from Propionibacterium; assay: Hyaluronidase inhibitory activity, partially purified enzyme, hyaluronic acid substrate; type: biochemical, Propionibacterium acnes JCM6425; details: for Inhibitory Ratio: P. acnes hyaluronidase, pH 7.0, 30° C., 15 minutes
Experimental: The activity of inhibiting hyaluronidase derived from Propionibacterium of the ascorbic acid-2-phosphate zinc salt, the ascorbic acid-2-phosphate and zinc salt mixture and the ascorbic acid-2-glucoside and zinc salt mixture of the present invention was examined.
The culture solution of Propionibacterium acnes JCM6425 cultured in the same manner as in Example 7 was dialyzed with 50 mM phosphate buffer, then concentrated to about 1/10 the amount using a membrane having a fraction molecular weight of 10,000 and used as the hyaluronidase partially purified product.
To 1.8 ml of 50 mM HEPES buffer (pH: 7.0) separately placed in a small test tube, 0.2 ml of the […] partially purified product was added and thereto, APZ, AP+Zn and AG+Zn prepared in Examples 1 to 3, APM and AG were added each to have concentrations of 0.1 mg/ml, 1 mg/ml and 10 mg/ml. The reaction was started by addition of a substrate hyaluronic acid at a final concentration of 0.8 mg/ml. The reaction was performed at 30° C. for 15 minutes under shaking. After the shaking, 0.1 ml of 0.2M potassium tetraborate was added, kept at 100° C. for 3 minutes and cooled. To this solution, 3 ml of a paradimethylaminobenzaldehyde reagent (obtained by mixing and dissolving 10 g of dimethylaminobenzaldehyde, 12.5 ml of 10N hydrochloric acid and 77.5 ml of glacial acetic acid) 10 times diluted with glacial acetic acid was added and left standing at 37° C. for 20 minutes to allow reaction with N-acetylglucosamine liberated to proceed and thereby cause coloring. The absorbance at a wavelength of 544 nm was measured and the difference from the absorbance of a control test tube where the substrate was not present was used as the activity. The ratio between activity when a sample was present and activity when the sample was not present was calculated as the inhibitory ratio of each sample and the values obtained were compared.

[3] = tested on: Staphylococcus aureus IFO12732 strain; assay: Minimum inhibitory concentration (MIC) against Staphylococcus, turbidity of culture; type: cell-based
Experimental: A platinum-loopful of cells of fresh Staphylococcus aureus IFO12732 strain were inoculated in a test tube containing 5 ml of nutrient broth medium (produced by Difco) previously sterilized and deaerated. […] After the completion of cultivation, the turbidity of the culture solution was measured. The minimum concentration when turbidity was not increased by the cultivation was used as the minimum inhibitory concentration (MIC).

[4] = tested on: Propionibacterium acnes JCM6425 strain; assay: Minimum inhibitory concentration (MIC) against Propionibacterium, turbidity of culture; type: cell-based
Experimental: By the measurement of minimum inhibitory concentration (MIC), the ascorbic acid-2-phosphate zinc salt, the ascorbic acid-2-phosphate and zinc salt mixture and the ascorbic acid-2-glucoside and zinc salt mixture of the present invention were determined on their antibacterial action against Propionibacterium.
A platinum-loopful of cells of fresh Propionibacterium acnes JCM6425 strain were inoculated in a test tube containing 5 ml of GAM broth medium (produced by Nissui K.K.) previously sterilized and deaerated. Thereto, APZ, AP+Zn and AG+Zn prepared as in Examples 1 to 3, APM and AG, each diluted in a common ratio of 2 to have a concentration of from 10 to 0.078 mg/ml, were added and cultured at 35° C. for 72 hours under anaerobic conditions. After completion of cultivation, the test tube was thoroughly shaken and the turbidity of the culture solution was measured. The minimum concentration when the turbidity was not increased by cultivation was used as the minimum inhibitory concentration (MIC).

[5] = tested on: Pseudomonas-derived lipase type XIII; assay: Lipase inhibitory activity (1), paranitrophenyl palmitate substrate; type: biochemical; details: for Inhibitory Ratio: Pseudomonas lipase, pH 7.0, 30° C., 10 minutes
Experimental: The activity of inhibiting lipase derived from Pseudomonas of the ascorbic acid-2-phosphate zinc salt, the ascorbic acid-2-phosphate and zinc salt mixture and the ascorbic acid-2-glucoside and zinc salt mixture of the present invention was examined.
as §1, with “Pseudomonas-derived lipase type XIII (produced by Sigma) was dissolved in 100 mM phosphate buffer (pH: 7.0) to have a final concentration of 43 mU/ml. 2” for “To 1.9”, “the resulting solution was poured” for “50 mM HEPES buffer (pH: 6.5) separately placed”, “tube” for “tube, 0.1 ml of the lipase partially purified product was added”, “prepared as” for “prepared”, “of” for “of 0.1 mg/ml,”, “10” for “120”

| Compound | lipase inhibitory activity (in words) ([1]; Propionibacterium-derived lipase, summary of Table 4) | Inhibitory Ratio ([1]; sample 0.1 mg/ml) [%] | Inhibitory Ratio ([1]; sample 1 mg/ml) [%] | Inhibitory Ratio ([1]; sample 10 mg/ml) [%] | hyaluronidase inhibitory activity (in words) ([2]; Propionibacterium-derived hyaluronidase, summary of Table 5) | Inhibitory Ratio ([2]; sample 0.1 mg/ml) [%] | Inhibitory Ratio ([2]; sample 1 mg/ml) [%] | Inhibitory Ratio ([2]; sample 10 mg/ml) [%] | MIC ([3]; Staphylococcus aureus, IFO12732, 48 h) [µg/mL] | antibacterial action against Staphylococcus (in words) ([3]; summary of Table 2) | MIC ([4]; Cutibacterium acnes, JCM6425, 72 h) [µg/mL] | antibacterial activity against Propionibacterium (in words) ([4]; summary of Table 1) | lipase inhibitory activity (in words) ([5]; Pseudomonas-derived lipase, summary of Table 3) | Inhibitory Ratio ([5]; sample 1 mg/ml) [%] | Inhibitory Ratio ([5]; sample 10 mg/ml) [%] | MIC ([3]; Staphylococcus aureus IFO12732, nutrient broth, 35° C., 48 hours, shaking) [µg/mL] | MIC ([4]; Propionibacterium acnes JCM6425, GAM broth, 35° C., 72 hours, anaerobic) [µg/mL] | MIC ([3]; Staphylococcus aureus IFO12732, nutrient broth, 35° C., 48 hours, shaking, read-out: MIC) [µg/mL] | MIC ([4]; Cutibacterium acnes, Propionibacterium acnes JCM6425, GAM broth, 35° C., 72 hours, anaerobic, read-out: MIC) [µg/mL] |
| --- | --- | --- | --- | --- | --- | --- | --- | --- | --- | --- | --- | --- | --- | --- | --- | --- | --- | --- | --- |
| O=C1OC(C(O)CO)C2=C1OP(=O)([O][Zn][O]P1(=O)[O][Zn][O]C3=C(O1)C(=O)OC3C(O)CO)[O][Zn][O]2 (centres unmarked) | verified to have strong lipase inhibitory activity | 93 | 100 | 100 | verified to have strong hyaluronidase inhibitory activity | 80 | 98 | 100 | 625 | verified to have antibacterial action | 313 | verified to have antibacterial activity | verified to have lipase inhibitory activity | 76 | 98 |  |  |  |  |
| O=C1O[C@H]([C@@H](O)CO)C(O)=C1O[C@H]1O[C@H](CO)[C@@H](O)[C@H](O)[C@H]1O [AG, L-ascorbic acid-2-O-glucoside] |  | 0 | 0 | 0 |  | 10 | 13 | 22 |  |  |  |  |  | 0 | 0 | 10000 (≈ 29.6 mM) | >10000 |  |  |
| O=C1O[C@H]([C@@H](O)CO)C(O)=C1OP(=O)([O-])[O-].[Mg+2] [APM, L-ascorbic acid-2-phosphate magnesium salt] |  | 0 | 0 | 0 |  | 22 | 32 | 34 |  |  |  |  |  | 0 | 0 |  |  | 10000 | > 10000 |
